Assay results: ChEMBL document CHEMBL1201862, “PubChem BioAssay data set” (2004)
The source made the active and inactive calls. Unless noted, the rule behind the calls is not given here.

Experiments:
[1] = L. donovani amastigote growth inhibition, dose response, axenic amastigotes, plate reader, cherry pick (AID 651891); format: functional, cell-based; conditions: Leishmania donovani
[2] = Inhibition of T. cruzi Tulahuen strain amastigotes in L-6 muscle cells Measured in Cell-Based and Microorganism Combination System Using Plate Reader - 2138-03_Inhibitor_Dose_CherryPick_Activity.; format: functional; conditions: Rattus norvegicus, L6
[3] = T. b. rhodesiense proliferation inhibition, dose response, STIB900 strain, plate reader, cherry pick (AID 651893); format: functional, cell-based; conditions: Trypanosoma brucei
[4] = cytotoxicity in L-6 rat myocytes, dose response, cytotoxicity control, cell-based, plate reader, cherry-pick (AID 651896); format: functional
[5] = Inhibition of Plasmodium falciparum NF54 Measured in Cell-Based System Using Plate Reader - 2138-11_Inhibitor_Dose_CherryPick_Activity.; format: functional
[6] = intracellular Trypanosoma cruzi inhibitors in host cells – cell-based, plate reader, cherry-pick samples, set 3, dose response (AID 651818); format: functional;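 also: compounds incubated with infected cells for about four days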
[7] = molecular target: T1, Apoptotic protease-activating factor 1 (Homo sapiens, UniProt O14727); format: functional
T1 sequence (O14727 whole entry): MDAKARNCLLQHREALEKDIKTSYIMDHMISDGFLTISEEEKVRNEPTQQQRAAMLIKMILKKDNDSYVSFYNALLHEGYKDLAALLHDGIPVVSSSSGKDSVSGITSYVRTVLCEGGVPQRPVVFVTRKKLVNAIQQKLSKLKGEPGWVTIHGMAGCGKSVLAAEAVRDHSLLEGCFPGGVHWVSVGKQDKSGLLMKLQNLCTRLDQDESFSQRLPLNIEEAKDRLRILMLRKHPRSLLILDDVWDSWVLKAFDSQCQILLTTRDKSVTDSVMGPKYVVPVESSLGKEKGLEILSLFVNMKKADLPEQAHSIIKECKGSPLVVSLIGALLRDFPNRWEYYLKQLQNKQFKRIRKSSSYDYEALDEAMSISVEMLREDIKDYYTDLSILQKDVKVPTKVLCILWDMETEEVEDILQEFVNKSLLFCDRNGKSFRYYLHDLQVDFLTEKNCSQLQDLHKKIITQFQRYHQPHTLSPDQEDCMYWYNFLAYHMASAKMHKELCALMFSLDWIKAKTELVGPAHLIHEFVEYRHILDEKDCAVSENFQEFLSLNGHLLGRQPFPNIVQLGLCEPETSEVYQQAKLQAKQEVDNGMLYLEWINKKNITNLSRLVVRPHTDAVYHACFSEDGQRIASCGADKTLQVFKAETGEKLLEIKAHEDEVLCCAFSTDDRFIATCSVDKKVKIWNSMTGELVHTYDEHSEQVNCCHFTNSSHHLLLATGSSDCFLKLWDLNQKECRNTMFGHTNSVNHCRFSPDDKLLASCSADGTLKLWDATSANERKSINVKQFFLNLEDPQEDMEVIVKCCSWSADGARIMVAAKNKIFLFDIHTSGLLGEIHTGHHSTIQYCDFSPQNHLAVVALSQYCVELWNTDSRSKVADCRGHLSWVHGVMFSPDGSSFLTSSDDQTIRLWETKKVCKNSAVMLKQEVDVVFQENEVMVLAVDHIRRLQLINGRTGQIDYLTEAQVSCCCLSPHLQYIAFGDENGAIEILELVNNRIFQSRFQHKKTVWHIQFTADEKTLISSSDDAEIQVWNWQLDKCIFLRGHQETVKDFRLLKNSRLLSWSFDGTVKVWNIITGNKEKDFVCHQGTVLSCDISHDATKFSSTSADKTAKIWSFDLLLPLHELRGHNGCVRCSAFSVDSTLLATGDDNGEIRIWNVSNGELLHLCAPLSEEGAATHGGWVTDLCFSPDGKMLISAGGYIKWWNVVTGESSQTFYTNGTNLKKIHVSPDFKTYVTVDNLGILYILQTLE

[8] = molecular target: T2, Tyrosyl-DNA phosphodiesterase 2 (Homo sapiens, UniProt O95551); test: human TDP2 enzyme inhibitors, dose response, biochemical, epi absorbance, IC50 (AID 743297)
T2 sequence (O95551 whole entry): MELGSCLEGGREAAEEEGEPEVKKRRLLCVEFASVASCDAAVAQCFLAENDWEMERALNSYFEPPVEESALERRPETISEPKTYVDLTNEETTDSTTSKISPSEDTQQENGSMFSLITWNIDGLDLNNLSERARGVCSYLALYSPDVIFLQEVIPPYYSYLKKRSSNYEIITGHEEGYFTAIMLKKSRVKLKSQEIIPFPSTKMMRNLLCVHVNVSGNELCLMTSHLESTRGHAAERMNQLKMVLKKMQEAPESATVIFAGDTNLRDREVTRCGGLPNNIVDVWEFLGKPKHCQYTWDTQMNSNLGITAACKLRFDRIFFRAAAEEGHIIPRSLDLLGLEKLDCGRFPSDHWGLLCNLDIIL

[9] = molecular target: T3, Protein RecA (Mycobacterium tuberculosis, UniProt P9WHJ3); test: Fluorescence Cell-Free Homogeneous Dose Retest to Identify Inhibitors of RecA-Intein Splicing Activity. [Related pubchem assays (depositor defined):AID2097, AID2223, AID489010, AID492950]; format: functional
T3 sequence (P9WHJ3 whole entry): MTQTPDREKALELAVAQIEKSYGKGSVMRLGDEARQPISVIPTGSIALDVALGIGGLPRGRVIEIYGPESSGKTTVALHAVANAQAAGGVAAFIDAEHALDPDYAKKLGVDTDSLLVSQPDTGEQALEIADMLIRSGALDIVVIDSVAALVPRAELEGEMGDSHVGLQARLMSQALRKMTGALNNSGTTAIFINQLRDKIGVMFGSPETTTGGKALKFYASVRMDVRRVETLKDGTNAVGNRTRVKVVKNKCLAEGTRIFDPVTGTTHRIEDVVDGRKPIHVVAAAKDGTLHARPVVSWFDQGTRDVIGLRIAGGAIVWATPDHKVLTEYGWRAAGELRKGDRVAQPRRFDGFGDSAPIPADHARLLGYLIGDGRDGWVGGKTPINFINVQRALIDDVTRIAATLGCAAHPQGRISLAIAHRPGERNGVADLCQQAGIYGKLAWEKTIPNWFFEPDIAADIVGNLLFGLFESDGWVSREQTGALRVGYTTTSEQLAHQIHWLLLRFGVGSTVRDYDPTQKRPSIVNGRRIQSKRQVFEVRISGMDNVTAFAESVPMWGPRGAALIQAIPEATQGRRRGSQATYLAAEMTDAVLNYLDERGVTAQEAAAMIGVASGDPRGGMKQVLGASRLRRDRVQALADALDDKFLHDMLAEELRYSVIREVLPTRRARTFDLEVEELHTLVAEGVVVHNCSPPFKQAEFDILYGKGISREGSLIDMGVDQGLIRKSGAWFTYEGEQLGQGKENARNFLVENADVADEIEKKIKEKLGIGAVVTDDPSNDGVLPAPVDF

[10] = molecular target: T4, Replicative DNA helicase DnaB (Mycobacterium tuberculosis, UniProt P9WMR3); test: DnaB intein splicing inhibitors, dose response, biochemical, cell-free fluorescence (AID 449749); format: functional
T4 sequence (P9WMR3 whole entry): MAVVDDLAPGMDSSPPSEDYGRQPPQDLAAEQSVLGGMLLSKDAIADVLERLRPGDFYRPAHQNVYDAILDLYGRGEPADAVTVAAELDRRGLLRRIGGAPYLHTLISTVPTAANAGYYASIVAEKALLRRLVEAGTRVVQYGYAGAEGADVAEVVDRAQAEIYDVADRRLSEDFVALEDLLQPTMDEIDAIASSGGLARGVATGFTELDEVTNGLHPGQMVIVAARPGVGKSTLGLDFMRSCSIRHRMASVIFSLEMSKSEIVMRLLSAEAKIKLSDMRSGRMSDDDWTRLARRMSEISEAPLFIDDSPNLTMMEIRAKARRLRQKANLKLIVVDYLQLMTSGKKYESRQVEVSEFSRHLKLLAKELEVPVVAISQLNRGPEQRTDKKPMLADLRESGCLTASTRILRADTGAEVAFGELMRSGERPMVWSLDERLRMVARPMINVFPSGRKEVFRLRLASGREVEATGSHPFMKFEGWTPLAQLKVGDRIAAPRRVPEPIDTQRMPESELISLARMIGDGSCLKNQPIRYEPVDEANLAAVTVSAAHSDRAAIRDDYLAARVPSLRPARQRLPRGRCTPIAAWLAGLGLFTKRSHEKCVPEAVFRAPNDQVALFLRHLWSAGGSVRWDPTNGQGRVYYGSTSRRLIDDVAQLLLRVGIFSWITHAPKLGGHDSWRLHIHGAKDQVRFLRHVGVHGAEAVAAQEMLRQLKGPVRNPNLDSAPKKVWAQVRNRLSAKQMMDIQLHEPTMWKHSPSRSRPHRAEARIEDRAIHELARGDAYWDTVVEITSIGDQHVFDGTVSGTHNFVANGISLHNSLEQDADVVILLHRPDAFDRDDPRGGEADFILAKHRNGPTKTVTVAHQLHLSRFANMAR

[11] = molecular target: Arf-GAP with SH3 domain, ANK repeat and PH domain-containing protein 1 (Homo sapiens, UniProt Q9ULH1); format: functional;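 also: biochemical fluorescence polarization dose–response screen measuring inhibition of ASAP1; ASAP1 GAP domain stimulating GTP hydrolysis by truncated human ARF1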
Arf-GAP with SH3 domain, ANK repeat and PH domain-containing protein 1, sequence (Q9ULH1 whole entry, the tested form may be a part): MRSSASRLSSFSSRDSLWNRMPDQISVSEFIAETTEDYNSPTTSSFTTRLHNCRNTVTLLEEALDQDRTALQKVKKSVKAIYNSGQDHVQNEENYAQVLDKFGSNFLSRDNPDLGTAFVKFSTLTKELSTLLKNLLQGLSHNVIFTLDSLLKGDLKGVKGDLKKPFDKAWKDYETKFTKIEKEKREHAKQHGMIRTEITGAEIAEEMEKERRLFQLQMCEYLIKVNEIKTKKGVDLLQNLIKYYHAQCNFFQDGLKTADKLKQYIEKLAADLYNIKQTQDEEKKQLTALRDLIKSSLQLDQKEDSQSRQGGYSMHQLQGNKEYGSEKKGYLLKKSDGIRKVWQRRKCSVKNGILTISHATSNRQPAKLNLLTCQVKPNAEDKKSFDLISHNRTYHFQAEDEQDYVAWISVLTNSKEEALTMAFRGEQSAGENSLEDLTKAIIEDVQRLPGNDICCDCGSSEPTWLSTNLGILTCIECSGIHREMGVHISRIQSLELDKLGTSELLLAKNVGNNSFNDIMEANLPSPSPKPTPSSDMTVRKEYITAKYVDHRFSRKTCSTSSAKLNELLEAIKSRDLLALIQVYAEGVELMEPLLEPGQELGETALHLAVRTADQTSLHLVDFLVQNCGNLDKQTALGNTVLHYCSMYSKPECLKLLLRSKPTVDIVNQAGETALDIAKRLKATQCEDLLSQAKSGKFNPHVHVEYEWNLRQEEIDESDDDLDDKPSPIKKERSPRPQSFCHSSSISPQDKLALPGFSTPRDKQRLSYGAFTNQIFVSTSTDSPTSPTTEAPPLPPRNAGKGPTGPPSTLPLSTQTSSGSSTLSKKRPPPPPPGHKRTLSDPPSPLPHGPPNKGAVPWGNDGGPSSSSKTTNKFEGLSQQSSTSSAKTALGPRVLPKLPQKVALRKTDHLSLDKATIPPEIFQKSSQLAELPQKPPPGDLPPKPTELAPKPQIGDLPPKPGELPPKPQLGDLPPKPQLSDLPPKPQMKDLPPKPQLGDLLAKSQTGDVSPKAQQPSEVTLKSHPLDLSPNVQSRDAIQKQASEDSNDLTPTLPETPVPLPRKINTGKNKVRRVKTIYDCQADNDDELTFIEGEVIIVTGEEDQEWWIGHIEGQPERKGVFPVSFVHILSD

[12] = molecular target: T5, DNA repair and recombination protein RAD54-like (Homo sapiens, UniProt Q92698); test: inhibitors of human RAD54 branch migration, confirmation, biochemical, fluorescence, cherry-picked samples, dose series (AID 651657); format: functional
T5 sequence (Q92698 whole entry): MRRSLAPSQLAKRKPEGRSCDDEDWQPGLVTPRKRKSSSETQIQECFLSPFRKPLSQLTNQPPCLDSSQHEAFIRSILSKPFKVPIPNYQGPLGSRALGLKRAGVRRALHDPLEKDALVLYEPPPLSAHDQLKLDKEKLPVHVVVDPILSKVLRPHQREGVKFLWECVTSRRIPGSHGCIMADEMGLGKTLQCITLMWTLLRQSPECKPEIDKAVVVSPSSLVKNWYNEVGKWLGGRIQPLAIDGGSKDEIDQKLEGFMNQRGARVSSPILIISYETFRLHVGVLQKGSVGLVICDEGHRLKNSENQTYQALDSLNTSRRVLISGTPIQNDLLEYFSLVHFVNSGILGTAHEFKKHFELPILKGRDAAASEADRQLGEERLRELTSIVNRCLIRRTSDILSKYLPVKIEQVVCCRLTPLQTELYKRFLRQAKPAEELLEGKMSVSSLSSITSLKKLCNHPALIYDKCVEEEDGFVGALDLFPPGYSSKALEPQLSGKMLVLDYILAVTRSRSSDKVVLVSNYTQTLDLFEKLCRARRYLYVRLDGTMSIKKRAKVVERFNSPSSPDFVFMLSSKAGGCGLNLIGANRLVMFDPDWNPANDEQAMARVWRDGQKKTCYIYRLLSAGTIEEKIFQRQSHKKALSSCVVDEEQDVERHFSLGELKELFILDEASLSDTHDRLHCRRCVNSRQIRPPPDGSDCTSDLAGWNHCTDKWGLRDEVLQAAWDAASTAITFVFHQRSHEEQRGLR

[13] = tested on: Vero; test: Vero cell toxicity, dose response, cytotoxicity control, plate reader, cherry-pick samples (AID 687020); format: functional, cell-based; conditions: Chlorocebus sabaeus
[14] = molecular target: T6, Beta-2 adrenergic receptor (Homo sapiens, UniProt P07550); test: beta2AR agonists driving receptor internalization, dose response, cell-based, FAP fluorogen, flow cytometry, cherry pick 1 (AID 588763); format: functional
T6 sequence (P07550 whole entry): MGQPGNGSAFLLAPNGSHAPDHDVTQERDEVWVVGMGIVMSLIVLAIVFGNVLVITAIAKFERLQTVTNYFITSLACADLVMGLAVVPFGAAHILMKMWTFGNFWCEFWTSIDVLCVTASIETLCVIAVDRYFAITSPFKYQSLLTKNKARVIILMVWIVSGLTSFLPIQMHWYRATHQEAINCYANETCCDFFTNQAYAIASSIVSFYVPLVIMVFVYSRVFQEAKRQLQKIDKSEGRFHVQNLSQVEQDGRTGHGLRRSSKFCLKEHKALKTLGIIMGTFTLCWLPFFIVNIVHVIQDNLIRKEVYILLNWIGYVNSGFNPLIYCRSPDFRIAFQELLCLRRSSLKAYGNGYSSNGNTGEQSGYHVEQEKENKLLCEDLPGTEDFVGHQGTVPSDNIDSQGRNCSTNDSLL

[15] = molecular target: T7, Insulin-degrading enzyme (Homo sapiens, UniProt P14735); test: Dose Response: Fluorescence polarization-based cell-based high throughput dose response assay for inhibitors of insulin-degrading enzyme (IDE). [Related pubchem assays: 434962 (Primary screen (IDE inhibitors in singlicate)), 449730 (Counterscreen (Cytotoxicity in triplicate)), 435028 (Confirmation (IDE inhibitors in triplicate)), 434984 (Summary …; format: functional
T7 sequence (P14735 whole entry): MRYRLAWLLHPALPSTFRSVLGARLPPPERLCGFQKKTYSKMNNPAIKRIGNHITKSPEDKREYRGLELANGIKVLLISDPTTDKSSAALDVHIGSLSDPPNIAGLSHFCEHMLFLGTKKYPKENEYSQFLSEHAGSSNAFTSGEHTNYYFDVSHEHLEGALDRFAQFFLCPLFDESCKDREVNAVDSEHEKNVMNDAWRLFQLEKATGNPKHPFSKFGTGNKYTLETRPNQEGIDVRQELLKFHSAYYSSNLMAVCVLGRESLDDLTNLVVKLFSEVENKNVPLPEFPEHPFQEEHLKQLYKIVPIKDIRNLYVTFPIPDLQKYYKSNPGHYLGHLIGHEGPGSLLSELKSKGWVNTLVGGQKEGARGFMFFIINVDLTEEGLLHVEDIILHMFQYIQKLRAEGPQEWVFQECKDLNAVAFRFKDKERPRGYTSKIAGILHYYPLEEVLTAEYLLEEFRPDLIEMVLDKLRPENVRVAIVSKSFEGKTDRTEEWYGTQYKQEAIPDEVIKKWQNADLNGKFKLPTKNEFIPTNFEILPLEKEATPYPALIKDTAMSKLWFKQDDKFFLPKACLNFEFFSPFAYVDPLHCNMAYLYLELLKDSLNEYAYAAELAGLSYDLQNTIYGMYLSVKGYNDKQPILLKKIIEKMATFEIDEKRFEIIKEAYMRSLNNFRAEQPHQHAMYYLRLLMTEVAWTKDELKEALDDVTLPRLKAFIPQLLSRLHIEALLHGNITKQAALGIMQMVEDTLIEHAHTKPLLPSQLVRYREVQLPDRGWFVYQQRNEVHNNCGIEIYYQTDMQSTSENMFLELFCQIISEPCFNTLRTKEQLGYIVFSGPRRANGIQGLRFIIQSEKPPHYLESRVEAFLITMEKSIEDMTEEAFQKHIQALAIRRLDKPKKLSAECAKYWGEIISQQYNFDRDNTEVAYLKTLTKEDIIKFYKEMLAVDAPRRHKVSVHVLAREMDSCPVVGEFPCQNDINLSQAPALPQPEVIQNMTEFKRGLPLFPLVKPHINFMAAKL

[16] = Counterscreen for IDE inhibitors: Luminescence-based cell-based high throughput dose response assay to identify compounds that are cytotoxic to HEK cells. [Related pubchem assays: 434962 (Primary screen (IDE inhibitors in singlicate)), 449730 (Counterscreen (Cytotoxicity in triplicate)), 435028 (Confirmation (IDE inhibitors in triplicate)) …; format: functional; conditions: HEK293
[17] = molecular target: T6, Beta-2 adrenergic receptor; test: Dose response for HTS for Beta-2AR agonists via FAP method from Powderset3.; format: functional

COc1ccc(CN(C)C[C@@H]2Oc3c(NC(=O)c4ccncc4)cccc3C(=O)N([C@H](C)CO)C[C@H]2C)cc1
IC50 [1]: > 100 µM (inactive) | IC50 [2]: 5.91 µM (inactive) | IC50 [3]: 2.62 µM (inactive) | IC50 [4]: > 100 µM (inactive) | IC50 [5]: 5.91 µM (inactive) | AC50 [6]: 361 nM (active)

COc1ccccc1Nc1cc2cc(Br)ccc2c(=O)[nH]1
IC50 [7]: 1.51 µM (active) | IC50 [8]: 10.7 µM (inactive) | EC50 [9]: 23.3 µM (active) | AC50 [10]: > 120 µM (inactive) | IC50 [11]: 165 µM (inactive)

Cc1ccc(-c2nc(N3CCN(C)CC3)c3ccccc3n2)cc1
AC50 [12]: 41.3 µM (active) | AC50 [13]: 26.8 µM (active)

Clc1cccc(-c2nnc(SCc3nc4ccccc4[nH]3)n2Cc2ccco2)c1
EC50 [14]: 10.1 µM (inactive) | IC50 [15]: 2.57 µM (active) | IC50 [16]: 22.4 µM (not active) | EC50 [17]: 8.09 µM (active)
